Laboratory results published in ChEMBL document CHEMBL4706648, “Antitubercular 2-Pyrazolylpyrimidinones: Structure-Activity Relationship and Mode-of-Action Studies” (J Med Chem, 2021).
Values after ≈ are worked out from the molar mass of the structure shown. Active and inactive are the calls of the source. No cut-off for these calls is given here.

How the values were obtained:
[1] = Aqueous solubility of compound at pH 7.4; assay type: physicochemical
CHO = assay: Cytotoxicity against CHO cells assessed as reduction in cell viability by MTT assay; assay type: cell-based; conditions: Cricetulus griseus
[2] = tested on: Mycobacterium tuberculosis; assay type: functional; conditions: H37Rv, 168 h, time 7 day
[3] = Metabolic stability in mouse liver microsomes assessed as parent compound remaining after 30 mins; assay type: ADME, Microsome; conditions: 0.5 h
[4] = Protein binding in human plasma assessed as unbound fraction at 5 uM incubated for 1 hr at 37 degreeC and measured after 4 hrs by ultracentrifugation based LC-MS/MS analysis; assay type: ADME, cell-free; conditions: 5 h
[5] = Metabolic stability in human liver microsomes assessed as parent compound remaining after 30 mins; assay type: ADME, Microsome; conditions: 0.5 h
[6] = Kinetic solubility of compound at 200 uM at pH 7.4 measured after 20 hrs by HPLC-DAD analysis; assay type: physicochemical; conditions: buffer, pH 7.4, 20 h
[7] = Metabolic stability in rat liver microsomes assessed as parent compound remaining after 30 mins; assay type: ADME, Microsome; conditions: 0.5 h
Vero = assay: Cytotoxicity against African green monkey Vero cells assessed as reduction in cell viability by MTT assay; assay type: cell-based; conditions: Chlorocebus sabaeus
[8] = tested on: Mycobacterium tuberculosis; assay: Antimycobacterial activity against wild-type Mycobacterium tuberculosis H37Rv assessed as inhibition of bacterial growth grown under middlebrook 7H9 medium incubated for 7 days by alamar blue broth microdilution method; assay type: functional; conditions: 168 h, time 7 day
[9] = tested on: Mycobacterium tuberculosis; assay: Antimycobacterial activity against mmpL3 gene silenced Mycobacterium tuberculosis H37Rv assessed as inhibition of bacterial growth grown under middlebrook 7H9 medium incubated for 7 days by alamar blue broth microdilution method; assay type: functional, organism-based; conditions: time 7.0 day

Compound	solubility ([1]; buffer) [µM]	IC50 (CHO) [µM]	MIC [2] [µM]	solubility ([1]; aqueous, read-out: solubility) [µM]	further results
Nc1cc(C2CC2)nn1-c1nc(C(F)(F)F)cc(=O)[nH]1	10 (≈ 2.85 µg/mL)	24	25 (≈ 7.13 µg/mL)	–	–
Cc1nn(-c2nc(C(F)(F)F)cc(=O)[nH]2)c(C)c1-c1cccnc1	195 (≈ 65.4 µg/mL)	–	> 50	–	–
Cc1cc(C)n(-c2nc(-c3ccc(F)cc3)cc(=O)[nH]2)n1	35 (≈ 9.95 µg/mL)	4	1.2 (≈ 0.341 µg/mL)	–	–
Cc1cc(NC2CCOCC2)n(-c2nc(C(F)(F)F)cc(=O)[nH]2)n1	50 (≈ 17.2 µg/mL)	18	1.56 (≈ 0.536 µg/mL)	–	Stabilty [3]: 93%; Fu [4]: 0.014; Stabilty [5]: > 99%; Kinetic_solubility [6]: 50 µM; Stabilty [7]: > 99%
CCc1cc(C)nn1-c1nc(C(F)(F)F)cc(=O)[nH]1	–	108	12 (≈ 3.27 µg/mL)	200 (≈ 54.4 µg/mL)	–
Cc1cc(C2CC2)n(-c2nc(C(F)(F)F)cc(=O)[nH]2)n1	160 (≈ 45.5 µg/mL)	78	12 (≈ 3.41 µg/mL)	–	–
Cc1nc(C)n(-c2nc(-c3ccccc3)cc(=O)[nH]2)n1	130 (≈ 34.7 µg/mL)	> 50	> 125	–	–
O=c1cc(-c2ccccc2)nc(-n2cccn2)[nH]1	190 (≈ 45.3 µg/mL)	> 50	50 (≈ 11.9 µg/mL)	–	–
Cc1cc(C)n(-c2nc3ccccc3c(=O)[nH]2)n1	150 (≈ 36 µg/mL)	6	3 (≈ 0.721 µg/mL)	–	–
Cc1cc(C)n(-c2cc(-c3ccccc3)nc(=O)[nH]2)n1	30 (≈ 7.99 µg/mL)	10	2 (≈ 0.533 µg/mL)	–	–
Cc1cc(C)n(-c2nc(-c3ccc(F)cc3)c(C#N)c(=O)[nH]2)n1	30 (≈ 9.28 µg/mL)	> 50	> 50	–	–
Cc1cc(Nc2ccc(C(=O)N(C)C)cc2)n(-c2nc(C(F)(F)F)cc(=O)[nH]2)n1	–	–	> 50	200 (≈ 81.3 µg/mL)	–
Cc1cc(C)n(-c2nc(-c3ccc(N4CCOCC4)cc3)cc(=O)[nH]2)n1	40 (≈ 14.1 µg/mL)	–	> 125	–	–
Cc1cc(C(=O)N(C)C)nn1-c1nc(-c2ccc(F)cc2)cc(=O)[nH]1	65 (≈ 22.2 µg/mL)	–	> 50	–	–
Cc1cc(C)n(-c2nc(-c3ccc(S(C)(=O)=O)cc3)cc(=O)[nH]2)n1	8 (≈ 2.76 µg/mL)	> 50	> 50	–	–
Cc1cc(C)n(-c2nc(-c3ccccc3)cc(=O)n2C)n1	–	–	> 50	200 (≈ 56.1 µg/mL)	IC50 (Vero): 357 µM
Cc1nn(-c2nc(C(F)(F)F)cc(=O)[nH]2)c(C)c1Br	–	> 50	25 (≈ 8.43 µg/mL)	200 (≈ 67.4 µg/mL)	–
CCOc1cc(C)nn1-c1nc(C(F)(F)F)cc(=O)[nH]1	120 (≈ 34.6 µg/mL)	> 50	25 (≈ 7.21 µg/mL)	–	–
Cc1cc(C)n(-c2nc(-c3ccc(NS(C)(=O)=O)cc3)cc(=O)[nH]2)n1	20 (≈ 7.19 µg/mL)	> 50	> 125	–	–
CC(=O)Nc1cc(C)nn1-c1nc(-c2ccccc2)cc(=O)[nH]1	150 (≈ 46.4 µg/mL)	–	6 (≈ 1.86 µg/mL)	–	IC50 (Vero): 35 µM; MIC [8]: 27 µM (≈ 8.35 µg/mL); Activity [9]: Active
Cc1cc(C)n(-c2nc(-c3ccccc3)c(C)c(=O)[nH]2)n1	120 (≈ 33.6 µg/mL)	25	2 (≈ 0.561 µg/mL)	–	Stabilty [3]: 45%; Stabilty [5]: 65%; Kinetic_solubility [6]: 120 µM; Stabilty [7]: 54%
Cc1cc(C)n(-c2nc(C)c(-c3ccccc3)c(=O)[nH]2)n1	190 (≈ 53.3 µg/mL)	9	9 (≈ 2.52 µg/mL)	–	–
COc1cc(-c2ccccc2)nc(-n2nc(C)cc2C)n1	–	> 50	> 50	200 (≈ 56.1 µg/mL)	–
Cc1cc(C)n(-c2nc(-c3ccncc3)cc(=O)[nH]2)n1	180 (≈ 48.1 µg/mL)	> 50	9 (≈ 2.41 µg/mL)	–	–

Compound	solubility ([1]; buffer) [µM]	IC50 (CHO) [µM]	MIC [2] [µM]	solubility ([1]; aqueous, read-out: solubility) [µM]	further results
Cc1cc(N)n(-c2nc(C(F)(F)F)cc(=O)[nH]2)n1	–	120	20 (≈ 5.18 µg/mL)	200 (≈ 51.8 µg/mL)	–
Cc1cc(C)n(-c2nc(C(=O)Nc3ccc(F)cc3)cc(=O)[nH]2)n1	–	> 50	25 (≈ 8.18 µg/mL)	200 (≈ 65.5 µg/mL)	–
Cc1cc(C)n(-c2cc(-c3ccccc3)cc(=O)n2C)n1	–	> 50	> 50	185 (≈ 51.7 µg/mL)	–
Cc1cc(N)n(-c2nc(-c3ccccc3)cc(=O)[nH]2)n1	180 (≈ 48.1 µg/mL)	–	–	–	IC50 (Vero): 9 µM
Cc1cc(NCCO)n(-c2nc(C(F)(F)F)cc(=O)[nH]2)n1	–	–	37 (≈ 11.2 µg/mL)	200 (≈ 60.6 µg/mL)	–
Cc1cc(=O)n(-c2nc(-c3ccccc3)cc(=O)[nH]2)[nH]1	–	–	> 125	190 (≈ 51 µg/mL)	–
Cc1cc(C)n(-c2nc(-c3ccc(F)cc3)c(C(=O)O)c(=O)[nH]2)n1	190 (≈ 62.4 µg/mL)	> 50	> 50	–	–
Cc1nn(-c2nc(C(F)(F)F)cc(=O)[nH]2)c(C)c1N1CCOCC1	160 (≈ 54.9 µg/mL)	> 50	6.25 (≈ 2.15 µg/mL)	–	Fu [4]: 0.03; Kinetic_solubility [6]: 160 µM
Cc1cc(C)n(-c2cc(=O)cc(-c3ccccc3)[nH]2)n1	120 (≈ 31.8 µg/mL)	> 50	> 50	–	–
Cc1cc(C)n(-c2nc(-c3cccnc3)cc(=O)[nH]2)n1	–	> 50	50 (≈ 13.4 µg/mL)	200 (≈ 53.5 µg/mL)	–
Cc1cc(Nc2ccc(F)cc2F)n(-c2nc(C(F)(F)F)cc(=O)[nH]2)n1	–	8	0.3 (≈ 0.111 µg/mL)	< 5	–
Cc1cc(C(=O)O)nn1-c1nc(-c2ccc(F)cc2)cc(=O)[nH]1	155 (≈ 48.7 µg/mL)	–	> 50	–	–
Cc1cc(Nc2ccc(C#N)cc2)n(-c2nc(C(F)(F)F)cc(=O)[nH]2)n1	75 (≈ 27 µg/mL)	20	9.4 (≈ 3.39 µg/mL)	–	–
CCNc1cc(C)nn1-c1nc(C(F)(F)F)cc(=O)[nH]1	85 (≈ 24.4 µg/mL)	8	6.25 (≈ 1.8 µg/mL)	–	–
CNC(=O)c1ccc(-c2cc(=O)[nH]c(-n3nc(C)cc3C)n2)cc1	70 (≈ 22.6 µg/mL)	> 50	> 50	–	–
Cc1cc(O)nc(-n2nc(C)cc2C)n1	180 (≈ 36.8 µg/mL)	–	30 (≈ 6.13 µg/mL)	–	IC50 (Vero): 325 µM
Cc1cc(CN(C)C)nn1-c1nc(C(F)(F)F)cc(=O)[nH]1	–	–	> 50	200 (≈ 60.3 µg/mL)	–
Cn1ccnc1-c1nc(-c2ccccc2)cc(=O)[nH]1	–	4	20 (≈ 5.05 µg/mL)	200 (≈ 50.5 µg/mL)	–
Cc1cc(C)n(-c2nc(-c3ccc(F)cc3)c(C(N)=O)c(=O)[nH]2)n1	110 (≈ 36 µg/mL)	–	> 50	–	–
Cc1cc(-c2ccccc2)n(-c2nc(C(F)(F)F)cc(=O)[nH]2)n1	–	> 50	25 (≈ 8.01 µg/mL)	200 (≈ 64.1 µg/mL)	–
Cc1cc(Nc2ccncc2)n(-c2nc(C(F)(F)F)cc(=O)[nH]2)n1	20 (≈ 6.73 µg/mL)	–	> 50	–	–
Cc1cc(NCCN(C)C)n(-c2nc(C(F)(F)F)cc(=O)[nH]2)n1	–	–	58 (≈ 19.2 µg/mL)	200 (≈ 66.1 µg/mL)	–
COCCNc1cc(C)nn1-c1nc(C(F)(F)F)cc(=O)[nH]1	–	17	2 (≈ 0.635 µg/mL)	200 (≈ 63.5 µg/mL)	MIC [8]: 1.2 µM (≈ 0.381 µg/mL); Activity [9]: Active
Cc1cc(Nc2ccc(N3CCOCC3)cn2)n(-c2nc(C(F)(F)F)cc(=O)[nH]2)n1	180 (≈ 75.8 µg/mL)	1.3	2.3 (≈ 0.969 µg/mL)	–	–
